The nature of data set [1]: Stability of CEdG in acidic solution (acid-catalyzed depurination and sidechain isomerization). Format: physicochemical. The settings on record: acidic hydrolysis, 1 M AcOH at 37° C. How it is done: A 1.25 mM solution of CEdG-A, B or dG in 100 μL of 1M AcOH (pH 2.4) was stirred at 37° C. Aliquots (10 μl) were removed periodically and added to 40 μL of 2M TEAA (pH 7.0). HPLC product analyses were performed using an Alltech HS HyperPrep 100 BDS C18 8μ column. A gradient of 0 to 4% CH3CN over 5 min was followed by 6.5% CH3CN over 30 min. TEAA (pH 7) was kept constant at 50 mM. The ratio of free base (CEGuanine or Guanine) to intact nucleoside (CEdG or dG) was calculated by integration of the corresponding HPLC peaks (see inset in FIG. 4). The CEG free base was identified as Peak A by ESI-MS in negative ion mode. C8H8O3N5, observed: m/z 222.064; calculated: m/z 222.063.
The chemical stability of CEdG was examined as an important criterion for evaluating its suitability as a quantitative biomarker. Purified stereoisomers of synthetic CEdG were subjected to acidic conditions (1 M AcOH at 37° C.) and the extent of released free base and diastereomer interconversion was monitored by HPLC as a function of time.

Another data set concerns calf thymus DNA. Put plainly: Artifactual CEdG formation in calf thymus DNA during workup, with carbonyl scavenger. Here is the method:
Calf thymus or tissue-extracted DNA (100 μg) was dissolved in 80 μL of autoclaved 18.2 MΩ H2O containing 20 μL of sodium acetate (100 mM, pH 5.5), 20 μL of 1×TBE, 1.5 μL of 50 mM ZnCl2, and 2.37 μL of a 100 mM AG or D-P stock solution. DNA was denatured at 95° C. for 5 min on a PCR heating block and then brought to 4° C. for 5 min. After equilibration to 45° C., 1.5 μL of 10 U/μL nuclease P1 was added. Alkaline phosphatase (4 μL of 8 U/μL), 1 U of bovine phosphodiesterase, and 14 μL of 100 mM CaCl2 were added after 1 hour, and the hydrolysis/dephosphorylation was continued for another 7 hours. […] DNA concentrations were determined by UV spectroscopy (1 OD260=50 μg/ml) and samples were stored at −80° C. prior to MS analyses. A 5 μL aliquot of digest was diluted to 200 μL and used for quantitation of 2′-deoxyguanosine by HPLC integration using a Beckman C18 reverse phase (25 cm×4.6 mm) column (Fullerton, CA). […]
Commercial grade calf thymus DNA was used as a model substrate for developing a protocol for CEdG quantitation in double-stranded DNA. […] Concentrations of AG from 0.5 to 50 mM were added prior to workup, and CEdG levels were measured in order to determine the optimal concentration required to achieve stable, reproducible levels. […]

Data set [2] relates to DNA extracted from breast tumor or adjacent tissue. Put plainly: Artifactual CEdG formation during DNA extraction from human breast tumor and adjacent tissue, with carbonyl scavenger. The settings on record: 10 mM D-penicillamine in two aliquots during cell lysis/DNA isolation and hydrolysis/dephosphorylation. How it is done: Breast tumor and adjacent normal tissue were obtained from the frozen tumor bank of the City of Hope Pathology Core. A pea-sized section (˜100 mg) of tissue was minced and suspended in 1.2 mL of digestion buffer (100 mM NaCl, 10 mM Tris HCl, pH 8, 25 mM EDTA, pH 8, 0.5% SDS, 0.2 mg/mL proteinase K, 10 mM D-penicillamine) and incubated at 50° C. in a water bath for 12-18 h. DNA was then extracted using an equivalent volume of phenol/chloroform/isoamyl alcohol (25:24:1). The aqueous fraction was separated and 0.5 volumes of ammonium acetate and 2 volumes of 100% ethanol were added. The DNA was spooled, washed twice with 70% ethanol, pelleted, and resuspended in autoclaved 18.2 MΩ water. The enzymatic hydrolysis was carried out as described above.
Levels of CEdG in DNA extracted from either breast tumor or adjacent tissue in the absence of carbonyl scavenger were ˜1.5-2.0-fold higher; however, artifactual formation was inhibited by the addition of 10 mM D-penicillamine in two aliquots during both the cell lysis/DNA isolation and hydrolysis/dephosphorylation steps. ^15N-enriched isotopomers of CEdG differing from the unlabeled adducts by 5 amu were synthesized, which provided sufficient mass resolution for accurate and reproducible quantitation using the stable isotope dilution method.

Consider `CC(Nc1nc2c(ncn2[C@H]2C[C@H](O)[C@@H](CO)O2)c(=O)[nH]1)C(=O)O` (single isomer, unassigned) [CEdG-A, N^2-(1-carboxyethyl)-2′-deoxyguanosine], for which the “racemization of the sidechain stereocenter / interconversion of CEdG isomers A and B” value in data set [1] is “No racemization”.

On to `CC(Nc1nc2c(ncn2[C@H]2C[C@H](O)[C@@H](CO)O2)c(=O)[nH]1)C(=O)O` (single isomer, unassigned) [CEdG-B, N^2-(1-carboxyethyl)-2′-deoxyguanosine], for which the “racemization of the sidechain stereocenter / interconversion of CEdG isomers A and B” value in data set [1] was “No racemization”.

Consider `N=C(N)NN` [AG, aminoguanidine], for which, in the data set with calf thymus DNA (10 mM AG added prior to sample processing, without scavenger 60-66 CEdG/10^6 dG), the “CEdG adduct levels after hydrolysis/dephosphorylation” value is 45-50 CEdG/10^6 guanines. For the same compound, the “CEdG levels after mock proteolysis and hydrolysis/dephosphorylation” value with calf thymus DNA (10 mM AG in two aliquots, without scavenger 80-100 CEdG/10^6 guanines) was “drop in measured CEdG levels”.

As for `CC(C)(S)[C@@H](N)C(=O)O` [D-penicillamine], the “artifactual CEdG formation” value in data set [2] is reported as “inhibited”.

The values are drawn from US11835499B2, “Methods of quantifying methylglyoxal-induced nucleic acid adducts” (CITY OF HOPE, priority 2018, dated 2023).
